In assay [1] the target is T1, 5-HT3A receptor F226C (Homo sapiens, UniProt P46098, F221C).
T1 construct: expressed in transfected cells; host or cells: HEK 293
Nature of the assay: Saturation binding of [^3H]VUF10166 at 5-HT3A receptor mutant. The note with it: F226C, Loop C; read-out: Kd (nM) Mean ± SEM. The method, then: (§1) Mutagenesis was performed using the QuikChange method (Agilent Technologies Inc., California, USA) on human 5-HT3A cDNA (accession number: P46098) cloned into pcDNA3.1 (Invitrogen, Paisley, UK). Cysteine residues were substituted for amino acids throughout each of the binding loops A–E (Fig. 1). To facilitate comparisons with previous work, we use the numbering of the equivalent residues in the mouse 5-HT3A subunit; for human numbering 5 should be subtracted from each residue number.
(§2) All data were analysed using GraphPad Prism 4.03. […].

Assay [2] concerns the target T2, 5-HT3A receptor Y153C (Homo sapiens, UniProt P46098, Y148C).
T2 construct: expressed in transfected cells; host or cells: HEK 293
Described as above. The note with it: Y153C, Loop E; read-out: Kd (nM) Mean ± SEM. The method, then: as §1, §2

Assay [3] has as its target T3, 5-HT3A receptor L126C (Homo sapiens, UniProt P46098, L121C).
T3 construct: expressed in transfected cells; host or cells: HEK 293
The assay is described as above. The settings on record: L126C, Loop A; read-out: Kd (nM) Mean ± SEM. The method, then:
as §1, §2

For assay [4], the target named is T4, 5-HT3A receptors (Homo sapiens, UniProt P46098).
T4 sequence (P46098 24-478): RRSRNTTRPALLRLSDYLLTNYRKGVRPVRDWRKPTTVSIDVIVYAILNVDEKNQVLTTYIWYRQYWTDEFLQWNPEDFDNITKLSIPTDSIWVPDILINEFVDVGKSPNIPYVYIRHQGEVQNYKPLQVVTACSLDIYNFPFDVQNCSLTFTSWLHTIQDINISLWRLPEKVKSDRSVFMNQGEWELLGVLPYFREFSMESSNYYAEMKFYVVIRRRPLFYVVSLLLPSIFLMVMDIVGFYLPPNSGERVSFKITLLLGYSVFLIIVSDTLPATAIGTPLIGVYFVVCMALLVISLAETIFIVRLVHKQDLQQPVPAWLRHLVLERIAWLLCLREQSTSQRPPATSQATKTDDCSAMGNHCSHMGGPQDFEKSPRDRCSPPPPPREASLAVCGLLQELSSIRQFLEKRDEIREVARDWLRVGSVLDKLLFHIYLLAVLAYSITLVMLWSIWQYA
Nature of the assay: Kinetic measurements (association, dissociation) at 5-HT3A receptors. Format: binding. The arrangement: expressed in transfected cells; host or cells: HEK 293. The note with it: calculated from kinetic rates, Equ (4), read-out: Kd(nM) (kon/koff).

In assay [5] the target is T5, 5-HT3A receptor W183C (Homo sapiens, UniProt P46098, W178C).
T5 construct: expressed in transfected cells; host or cells: HEK 293
T5 sequence (P46098 24-478 W178C): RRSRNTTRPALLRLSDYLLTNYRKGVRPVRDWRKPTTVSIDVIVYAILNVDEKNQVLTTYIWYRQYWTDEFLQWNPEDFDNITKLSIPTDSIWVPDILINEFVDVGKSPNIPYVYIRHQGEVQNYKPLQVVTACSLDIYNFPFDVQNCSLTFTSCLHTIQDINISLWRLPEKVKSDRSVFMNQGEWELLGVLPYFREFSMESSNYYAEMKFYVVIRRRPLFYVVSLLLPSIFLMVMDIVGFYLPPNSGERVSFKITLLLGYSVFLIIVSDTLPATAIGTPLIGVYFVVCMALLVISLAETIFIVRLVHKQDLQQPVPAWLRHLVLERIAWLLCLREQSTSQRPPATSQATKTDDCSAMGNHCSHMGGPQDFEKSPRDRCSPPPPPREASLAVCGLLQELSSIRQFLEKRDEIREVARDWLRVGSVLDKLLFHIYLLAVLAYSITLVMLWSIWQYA
Nature of the assay: Saturation binding of [^3H]VUF10166 at 5-HT3A receptor mutant. The settings on record: Loop B, read-out: Kd (nM) Mean ± SEM. How it is done:
as §1
(§3) All data were analysed using GraphPad Prism 4.03.

The target in assay [6] is T6, 5-HT3A receptor Q151C (Homo sapiens, UniProt P46098, Q146C).
T6 construct: expressed in transfected cells; host or cells: HEK 293
T6 sequence (P46098 24-478 Q146C): as the sequence (P46098 24-478 W178C) above, with Q123C, C155W counted along it
The assay is described as above. The note with it: Q151C, Loop E; read-out: Kd (nM) Mean ± SEM. How it is done: as §1, §3

Assay [7] has as its target T7, 5-HT3A receptor R58C (Homo sapiens, UniProt P46098, R53C).
T7 construct: expressed in transfected cells; host or cells: HEK 293
The description is as above. The note with it: read-out: Kd (nM) Mean ± SEM. The method, then:
as §1, §3

In assay [8] the target is T8, 5-HT3A receptor Y234C (Homo sapiens, UniProt P46098, Y229C).
T8 construct: expressed in transfected cells; host or cells: HEK 293
T8 sequence (P46098 24-478 Y229C): as the sequence (P46098 24-478 W178C) above, with C155W, Y206C counted along it
The description is as above. The note with it: Loop C, read-out: Kd (nM) Mean ± SEM. How it is done: as §1, §3

Assay [9] has as its target T9, 5-HT3A receptor S114C (Homo sapiens, UniProt P46098, S109C).
T9 construct: expressed in transfected cells; host or cells: HEK 293
The description is as above. The note with it: S114C; read-out: Kd (nM) Mean ± SEM. The method, then:
as §1, §3

Assay [10] has as its target T10, 5-HT3A receptor R145C (Homo sapiens, UniProt P46098, R140C).
T10 construct: expressed in transfected cells; host or cells: HEK 293
Described as above. The settings on record: R145C, Loop E; read-out: Kd (nM) Mean ± SEM. How it is done:
as §1, §3

Assay [11] concerns the target T11, 5-HT3A receptor E236C (Homo sapiens, UniProt P46098, E231C).
T11 construct: expressed in transfected cells; host or cells: HEK 293
The assay is described as above. The note with it: Loop C, read-out: Kd (nM) Mean ± SEM. The method, then: as §1, §3

Assay [12] deals with T12, 5-HT3A receptor N232C (Homo sapiens, UniProt P46098, N227C).
T12 construct: expressed in transfected cells; host or cells: HEK 293
T12 sequence (P46098 24-478 N227C): as the sequence (P46098 24-478 W178C) above, with C155W, N204C counted along it
Described as above. The settings on record: N232C, Loop C; read-out: Kd (nM) Mean ± SEM. The method, then:
as §1, §3

For assay [13], the target named is T13, 5-HT3A receptor Y141C (Homo sapiens, UniProt P46098, Y136C).
T13 construct: expressed in transfected cells; host or cells: HEK 293
T13 sequence (P46098 24-478 Y136C): as the sequence (P46098 24-478 W178C) above, with Y113C, C155W counted along it
Described as above. The note with it: Loop E, read-out: Kd (nM) Mean ± SEM. The method, then: as §1, §3

In assay [14] the target is T14, 5-HT3A receptor W90C (Homo sapiens, UniProt P46098, W85C).
T14 construct: expressed in transfected cells; host or cells: HEK 293
T14 sequence (P46098 24-478 W85C): as the sequence (P46098 24-478 W178C) above, with W62C, C155W counted along it
Described as above. The note with it: Loop D, read-out: Kd (nM) Mean ± SEM. The method, then: as §1, §3

Assay [15] deals with T15, 5-HT3A receptor D189C (Homo sapiens, UniProt P46098, D184C).
T15 construct: expressed in transfected cells; host or cells: HEK 293
T15 sequence (P46098 24-478 D184C): as the sequence (P46098 24-478 W178C) above, with C155W, D161C counted along it
The assay is described as above. The settings on record: Loop B, read-out: Kd (nM) Mean ± SEM. How it is done: as §1, §3

For assay [16], the target named is T16, 5-HT3A receptor I139C (Homo sapiens, UniProt P46098, I134C).
T16 construct: expressed in transfected cells; host or cells: HEK 293
T16 sequence (P46098 24-478 I134C): as the sequence (P46098 24-478 W178C) above, with I111C, C155W counted along it
The assay is described as above. The note with it: I139C, Loop E; read-out: Kd (nM) Mean ± SEM. The method, then:
as §1, §3

For assay [17], the target named is T17, 5-HT3A receptor Y143C (Homo sapiens, UniProt P46098, Y138C).
T17 construct: expressed in transfected cells; host or cells: HEK 293
T17 sequence (P46098 24-478 Y138C): as the sequence (P46098 24-478 W178C) above, with Y115C, C155W counted along it
The assay is described as above. The note with it: Loop E, read-out: Kd (nM) Mean ± SEM. How it is done: as §1, §3

Assay [18] addresses T18, 5-HT3A receptor R92C (Homo sapiens, UniProt P46098, R87C).
T18 construct: expressed in transfected cells; host or cells: HEK 293
Described as above. The settings on record: R92C, Loop D; read-out: Kd (nM) Mean ± SEM. How it is done:
as §1, §3

Assay [19] addresses T19, 5-HT3A receptor H185C (Homo sapiens, UniProt P46098, H180C).
T19 construct: expressed in transfected cells; host or cells: HEK 293
Described as above. The settings on record: H185C, Loop B; read-out: Kd (nM) Mean ± SEM. How it is done: as §1, §3

Assay [20] addresses T20, 5-HT3A receptor E129C (Homo sapiens, UniProt P46098, E124C).
T20 construct: expressed in transfected cells; host or cells: HEK 293
Described as above. The settings on record: Loop A, read-out: Kd (nM) Mean ± SEM. How it is done: as §1, §3

The target of assay [21] is T21, 5-HT3A receptor N128C (Homo sapiens, UniProt P46098, N123C).
T21 construct: expressed in transfected cells; host or cells: HEK 293
T21 sequence (P46098 24-478 N123C): as the sequence (P46098 24-478 W178C) above, with N100C, C155W counted along it
The assay is described as above. The note with it: N128C, Loop A; read-out: Kd (nM) Mean ± SEM. The method, then: as §1, §3

Assay [22] deals with T22, 5-HT3A receptor I71C (Homo sapiens, UniProt P46098, I66C).
T22 construct: expressed in transfected cells; host or cells: HEK 293
T22 sequence (P46098 24-478 I66C): as the sequence (P46098 24-478 W178C) above, with I43C, C155W counted along it
The assay is described as above. The settings on record: I71C; read-out: Kd (nM) Mean ± SEM. How it is done:
as §1, §3

Assay [23] has as its target T23, 5-HT3A receptor T181C (Homo sapiens, UniProt P46098, T176C/T181C).
T23 construct: expressed in transfected cells; host or cells: HEK 293
The assay is described as above. The settings on record: Loop B, read-out: Kd (nM) Mean ± SEM. How it is done:
as §1, §3

The structures appear in SMILES notation.

T19 sequence (P46098 24-478 H180C): as the sequence (P46098 24-478 W178C) above, with C155W, H157C counted along it
T9 sequence (P46098 24-478 S109C): as the sequence (P46098 24-478 W178C) above, with S86C, C155W counted along it
T20 sequence (P46098 24-478 E124C): as the sequence (P46098 24-478 W178C) above, with E101C, C155W counted along it
T10 sequence (P46098 24-478 R140C): as the sequence (P46098 24-478 W178C) above, with R117C, C155W counted along it
T3 sequence (P46098 24-478 L121C): as the sequence (P46098 24-478 W178C) above, with L98C, C155W counted along it
T11 sequence (P46098 24-478 E231C): as the sequence (P46098 24-478 W178C) above, with C155W, E208C counted along it
T18 sequence (P46098 24-478 R87C): as the sequence (P46098 24-478 W178C) above, with R64C, C155W counted along it
T7 sequence (P46098 24-478 R53C): as the sequence (P46098 24-478 W178C) above, with R30C, C155W counted along it
T23 sequence (P46098 24-478 T176C/T181C): as the sequence (P46098 24-478 W178C) above, with T153C, C155W, T158C counted along it
T1 sequence (P46098 24-478 F221C): as the sequence (P46098 24-478 W178C) above, with C155W, F198C counted along it
T2 sequence (P46098 24-478 Y148C): as the sequence (P46098 24-478 W178C) above, with Y125C, C155W counted along it

`CN1CCN(c2nc3ccccc3nc2Cl)CC1` [[^3H]VUF10166] [2-chloro-3-(4-[^3H]methylpiperazin-1-yl)quinoxaline]: the Kd in [1] was 1.59 ± 0.08 nM; in [2] it was 2.03 ± 0.33 nM; in assay [3], 0.89 ± 0.19 nM; in [4], 0.16 nM; in [5], > 10 nM; in [6] it was 1.82 ± 0.19 nM. The Kd is > 10 nM in assay [7]; > 10 nM in assay [8]; 0.21 ± 0.09 nM in assay [9]; 0.96 ± 0.35 nM in assay [10]; > 10 nM in assay [11]; 1.9 ± 0.36 nM in assay [12]. In addition, the Kd in assay [13] is > 10 nM; in [14], > 10 nM; in assay [15] it was > 10 nM; in assay [16] it was 1.55 ± 0.15 nM; in assay [17], > 10 nM; in assay [18], 0.88 ± 0.19 nM. In addition, the Kd was 0.96 ± 0.39 nM in assay [19]; > 10 nM in [20]; 0.7 ± 0.1 nM in [21]; 0.23 ± 0.05 nM in assay [22]; > 10 nM in assay [23].

The record behind these values is paper PMC4220016, “The binding characteristics and orientation of a novel radioligand with distinct properties at 5-HT3A and 5-HT3AB receptors” (Neuropharmacology, 2014).
